Like-named read-outs stand apart in the source and are kept apart here.
Assays:
[1] = tested on: Wistar rats, Model of Arthritis (BCG vaccine); experiment: Secondary inflammation: swelling of opposite non-injected feet and thymus weight, BCG vaccine arthritis model; type: in vivo; settings: for Degree of Swelling Day 12 / Degree of Swelling Day 16 / Degree of Swelling Day 20 / Degree of Swelling Day 24 / Degree of Swelling Day 28: non-injected feet
Description: (§1) Animal: Wistar rats, 2-3 months, 180±30 g.
(§2) Chemical agents: Paeoniflorin R1, Lobenzarit disodium (CCA), Indomethacin (IM), and BCG vaccine
(§3) Model of Arthritis: inject 0.1 ml of 10 mg BCG vaccine to the right hind foot, bottom side, intracutaneously.
Secondary inflammation: Swelling degree of the opposite non-injected feet (secondary inflammation): oral treatment was given 12-28 days after the inflammatory injection. The degree of swelling was measured 12, 16, 20, 24 and 28 days after the injection.
Groups of animals for secondary inflammation: 6 groups, each contains 6 rats, groups are: 1) Normal control, receive no inflammatory injection and any pre treatment; 2) Negative control, receive inflammatory injection and no treatment; 3) Positive control, receive inflammatory injection and CCA treatment; 4) Paeoniflorin R1 groups (5, 25, 50 mg/kg/d) oral administration of Paeoniflorin R1 30˜60 minutes before inflammatory injection.
TGP's influence on degree of swelling of opposite, non-injected feet (secondary inflammation)

[2] = tested on: sub-group T cell in peripheral circulation; experiment: Sub-group T cell (Th/Ts) in peripheral circulation of arthritis rats (Paeoniflorin R1); type: in vivo; settings: 25 mg/kg from 18 days after inflammatory injection, sacrificed day 26; P<0.01; FIG. 45
Description: Sub-Group T Cell in Peripheral Circulation
Paeoniflorin R1 treatment (25 mg/kg) started at 18 days after inflammatory injection, animal sacrificed on day 26.

[3] = tested on: abdominal cavity macrophage; experiment: H2O2, IL-1 and PGE2 produced by abdominal cavity macrophage of arthritis rats (Paeoniflorin R1); type: in vivo; settings: 25 mg/kg from 7 days after inflammatory injection, sacrificed day 17; FIG. 44
Description: Amount of H2O2, IL-1, and PGE2 produced by abdominal cavity macrophage: Use 5 rats in each group, paeoniflorin R1 (25 mg/kg) treatment starts 7 days after inflammatory injection, animal sacrificed on day 17.

[4] = tested on: synovial cells; experiment: IL-1, TNF and PGE2 produced by synovial cells of arthritis rats (Paeoniflorin R1); type: in vivo; settings: 25 mg/kg from 12 days after inflammatory injection, sacrificed day 22; P<0.01
Description: IL-1, TNF, and PGE2 Produced by Synovial Cells
Paeoniflorin R1 treatment (25 mg/kg) started at 12 days after inflammatory injection, animal sacrificed on day 22.

[5] = tested on: Wistar rats, Model of Arthritis (BCG vaccine); experiment: Primary inflammation: degree of swelling of injected feet, BCG vaccine arthritis model; type: in vivo
Description: as §1, §2, §3
Primary inflammation: Degree of swelling of injected feet (primary inflammation): oral treatment was given 30 minutes before the inflammatory injection (BCG vaccine). The degree of swelling was measured 1, 3, 5, and 7 days after the injection.
Oral administration of Paeoniflorin R1 30˜60 minutes before inflammatory injection.
TGP's influence on degree of swelling of injected feet (primary inflammation)

[6] = tested on: abdominal cavity macrophage; experiment: Kinemics of abdominal cavity macrophage PGE2 release in arthritis rats (Paeoniflorin R1); type: in vivo; settings: treatment from 1st day after inflammatory injection, sacrificed day 7, 14, 21, 28; FIG. 46
Description: Kinemics in Abdominal Cavity Macrophage Release PGE2
Paeoniflorin R1 treatment started the 1st day after inflammatory injection, animal sacrificed on day 7, 14, 21, and 28.

[7] = tested on: histidine-requiring salmonell typhimurrium mutants TA 97, TA 98, Ta 100 and TA 102; settings: +S9, 2-AF 10 μg/plate
Description: That was a parallel test between two groups of plates with or without the mixture of S9.
Each course was to be performed twice for three plates of different concentrations. Positive indicators and solvent control were included within all courses. Courses were performed with a ‘pre-incubation’ method, and the final result comes out in average from total six values.

[8] = tested on: Sprage-Dawley (SD) rats, adjuvant arthritis; experiment: Adjuvant arthritis in rats (FCA): primary inflammation, injected foot; type: in vivo
[9] = tested on: Sprage-Dawley (SD) rats, adjuvant arthritis; experiment: Adjuvant arthritis in rats (FCA): secondary inflammation, non-injected foot, thymus, pathology; type: in vivo
[10] = tested on: Chinese hamaster lung fibroblast (CHL) cells; type: cell-based
Description: TGP, was dissolved in methyl-sulfoxide.
With method of Ishidate (1981), cells were collected in 24 and 48 hours for S9− groups and 24 hours for S9+. All assays were performed twice and their average was taken for final results.

[11] = tested on: ICR mice; experiment: Enhanced delayed type hypersensitivity (DTH) reaction of mice induced by cyclophosphamide; type: in vivo; settings: Cy + Solvent, Cy 250 mg/kg i.p. at d-3
Description: Cyclophosphamide was administered 3 days before (d-3) the first day sensitization (enhanced DTH model).

[12] = tested on: mice, IgM in the spleen cells; experiment: Weakened IgM formation of mice induced by cyclophosphamide; type: in vivo; settings: Cy + solvent, Cy 125 mg/kg i.p. at d-3
Description: All groups of mice were sensitized with 0.2 ml 10% SRBC suspension i.p., mice were also administered 125 mg/kg of cyclophosphamide 3 days before the sensitization to make up the models of weakened immunoreactions. […] The mice were killed on the fifth day, organs of spleens and thymus were weighted and quantity of IgM in the spleen cells examined.

[13] = tested on: mice, IgM in the spleen cells; experiment: Enhanced IgM formation of mice induced by cyclophosphamide (spleen cell transfer); type: in vivo; settings: group C: donor mice SOI + Cy + solvent, Cy 100 mg/kg i.p.
Description: See table 49 and table 50 for grouping and test procedures: spleen cells of donor mice are transferred to acceptor mice. And, SRBC (4×10^8/mouse i.p.) are given to the acceptor mice for additional immune enhancement. Acceptors are killed on the fifth day of transference and examined for the quantity of IgM in the spleen cells.

[14] = tested on: ICR mice; settings: CTX 80 mg/kg
Description: ICR mice of sexual maturity, all males. Six random groups with eight mice in each one.
With a gradient of 4:1, the four concentrations were set at 2500 mg/kg, 625 mg/kg, […] and 39 mg/kg.
The drug was administered by gastric injection at the above doses together with the positive indicator (Cytoxan) and the solvent control. The course was repeated after 24 hours and animals were killed six hours after the second administration. Samples were taken and examined.

[15] = tested on: pregnant Wistar rats; experiment: Test of teratogenesis in pregnant rats; type: in vivo; settings: 250 mg/kg
Description: Ninety pregnant Wistar rats were numbered by their date of fertilization and randomly divided into five groups. The other two were for the control groups.
A positive and a negative control groups were also set up, rats were given acetosalicylic acid (250 mg/kg) in the positive group and distilled water of the same volume in the negative group.
The positive control group was treated with the acetosalicylic acid from day 9 to 11. Both were by gastric injection.
The body weight of rats in all groups was taken once every three days, and the amount of drugs were adjusted individually after the body weight. Rats were killed at day 20 of pregnancy, wombs and embryos were extracted by cesarean section, which was for the study and examination in a traditional way.

[16] = S9+, CP (60.0 μg/ml, 24, by row order of Table 43)

2-hydroxy-3 Methyl-Glucoside-4-Oxo-7-Carbonyl-Tricyclo [3,2,2,0^1,2]-Nonanyl-Benzoicmethoxycarbonyl [Paeoniflorin R1]
W. of Thymus Glands ([1]; 5 mg/kg/d oral): 16.3 mg/kg body W.
W. of Thymus Glands ([1]; 25 mg/kg/d oral): 19.4 mg/kg body W.
W. of Thymus Glands ([1]; 50 mg/kg/d oral): 13.9 mg/kg body W.
Degree of Swelling Day 12 ([1]; 5 mg/kg/d oral): 0.35
Degree of Swelling Day 16 ([1]; 5 mg/kg/d oral): 0.42
Degree of Swelling Day 20 ([1]; 5 mg/kg/d oral): 0.33
Degree of Swelling Day 24 ([1]; 5 mg/kg/d oral): 0.25
Degree of Swelling Day 28 ([1]; 5 mg/kg/d oral): 0.26
Degree of Swelling Day 12 ([1]; 25 mg/kg/d oral): 0.41±
Degree of Swelling Day 16 ([1]; 25 mg/kg/d oral): 0.39
Degree of Swelling Day 20 ([1]; 25 mg/kg/d oral): 0.20
Degree of Swelling Day 24 ([1]; 25 mg/kg/d oral): 0.15
Degree of Swelling Day 28 ([1]; 25 mg/kg/d oral): 0.23
Degree of Swelling Day 12 ([1]; 50 mg/kg/d oral): 0.40
Degree of Swelling Day 16 ([1]; 50 mg/kg/d oral): 0.39
Degree of Swelling Day 20 ([1]; 50 mg/kg/d oral): 0.30
Degree of Swelling Day 24 ([1]; 50 mg/kg/d oral): 0.27
Degree of Swelling Day 28 ([1]; 50 mg/kg/d oral): 0.24
Th/Ts in peripheral circulation [2]: can improve Th/Ts
Amount of H2O2, IL-1, and PGE2 produced by abdominal cavity macrophage [3]: can decrease the above reaction
IL-1, TNF, and PGE2 produced by synovial cells (result worded as Th/Ts) [4]: can improve Th/Ts
Degree of Swelling Day 1 ([5]; 25 mg/kg/d oral): 0.59
Degree of Swelling Day 3 ([5]; 25 mg/kg/d oral): 0.81
Degree of Swelling Day 5 ([5]; 25 mg/kg/d oral): 0.50
Degree of Swelling Day 7 ([5]; 25 mg/kg/d oral): 0.40
abdominal cavity macrophage PGE2 release [6]: effective in PGE2 release

Nc1ccc2c(c1)Cc1ccccc1-2 [2-AF]
reverting colonies, AT 97 [7]: 598 ± 27.4
reverting colonies, AT 98 [7]: 974 ± 30.7
reverting colonies, AT 100 [7]: 772 ± 29.8

O=C(O)c1ccccc1Nc1cc(Cl)ccc1C(=O)O [CCA, Lobenzarit disodium]
Degree of swelling, injected foot ([8]; d3, CCA 50 mg/kgd): 0.94 ± 0.17
Degree of swelling, injected foot ([8]; d5, CCA 50 mg/kgd): 0.67 ± 0.18
Degree of swelling, injected foot ([8]; d7, CCA 50 mg/kgd): 0.63 ± 0.18
W. of Thymus Glands ([1]; 50 mg/kg/d oral): 14.4 mg/kg body W.
Degree of Swelling Day 12 ([1]; 50 mg/kg/d oral): 0.40
Degree of Swelling Day 16 ([1]; 50 mg/kg/d oral): 0.55
Degree of Swelling Day 20 ([1]; 50 mg/kg/d oral): 0.42
Degree of Swelling Day 24 ([1]; 50 mg/kg/d oral): 0.14
Degree of Swelling Day 28 ([1]; 50 mg/kg/d oral): 0.05
Degree of Swelling Day 1 ([5]; 50 mg/kg/d oral): 0.65
Degree of Swelling Day 3 ([5]; 50 mg/kg/d oral): 0.96
Degree of Swelling Day 5 ([5]; 50 mg/kg/d oral): 0.68
Degree of Swelling Day 7 ([5]; 50 mg/kg/d oral): 0.65
weight of thymus ([9]; AA rats, gastric infusion d12 through d20): the weight of their thymus are gained
joint swelling ([9]; AA rats, gastric infusion d12 through d20, all three doses of TGP, one dose CCA): certain improvements in joint swelling
weight of thymus ([9]; CCA 50 mg/kgd): 14.3 ± 3.9
Degree of Swelling, non-injected foot ([9]; d20, CCA 50 mg/kgd): 0.41 ± 0.22 mL
Degree of Swelling, non-injected foot ([9]; d24, CCA 50 mg/kgd): 0.14 ± 0.15 mL
Degree of Swelling, non-injected foot ([9]; d28, CCA 50 mg/kgd): 0.05 ± 0.02 mL

O=P1(N(CCCl)CCCl)NCCCO1 (centres unmarked) [CP, Cyclophosphamide]
Result of chromosome aberration test ([10]; CP (15 μg/ml, 48, by row order of Table 43)): + +
Result of chromosome aberration test ([10]; CP (60.0 μg/ml, 24, by row order of Table 43)): + +
Deformation (types) [10, 16]: g, p, b, r, t, f
Deformation Rate [10, 16]: 44.0%
Deformation Rate ([10]; S9−, CP 15 μg/ml, incubation 48): 34.5%
Degree of ear swelling [11]: 28.1 ± 7.2
Quantity of Ig M (A value) [12]: 0.41 ± 0.10
Weight of Spleen [12]: 56.6 +11.5
weight of thymus [12]: 6.2 ± 4.7
Ig M (A), acceptor mice [13]: 0.53 ± 0.03^ΔΔ
Rate of inhibition [13]: 24.3

O=P1(N(CCCl)CCCl)NCCCO1 (centres unmarked) [CTX, Cytoxan]
MPCE % ± SD [14]: 41.37 ± 10.29%

COc1ccc2c(c1)c(CC(=O)O)c(C)n2C(=O)c1ccc(Cl)cc1 [IM, Indomethacin]
Degree of Swelling Day 1 ([5]; 2 mg/kg/d oral): 0.52
Degree of Swelling Day 3 ([5]; 2 mg/kg/d oral): 0.57
Degree of Swelling Day 5 ([5]; 2 mg/kg/d oral): 0.34
Degree of Swelling Day 7 ([5]; 2 mg/kg/d oral): 0.30
abdominal cavity macrophage PGE2 release [6]: effective in PGE2 release

CO[C@@]12[C@H](COC(N)=O)C3=C(C(=O)C(C)=C(N)C3=O)N1C[C@@H]1N[C@@H]12 [MMC, Mitomycin C]
Deformation (types) [10]: g, b, p, t, f
Deformation Rate [10]: 79.5%

CC(=O)Oc1ccccc1C(=O)O [acetosalicylic acid]
malformation in appearance (harelip, split tongue, short body, abnormal limbs) [15]: 4.4%
deformity rate in skeletal system ([15]; P<0.01): 69.5%
growth of embryo rats vs negative control ([15]; P<0.01 and P<0.05): showed differences in the body weight and length of embryos
absorptive embryo rate, dead embryo rate, survival rate vs negative control ([15]; day 9 to 11, P<0.01): much higher absorptive embryo rate, and dead embryo rate, and lower survival rate
